Paper PMC10604444, “Extra-Synaptic GABAA Receptor Potentiation and Neurosteroid-Induced Learning Deficits Are Inhibited by GR3027, a GABAA Modulating Steroid Antagonist” (Biomolecules, 2023)

Assays:
[1] = test system: dissociated hypothalamic cells (medial preoptic area); assay: Perforated patch recording of spontaneous miniature inhibitory postsynaptic currents (mIPSCs); type: cell-based, rat; conditions: 30 and 100 nM AP, holding potential −11 mV, n = 5, p < 0.05
Experimental: For the patch clamp studies, male Sprague-Dawley rats (n = 5, weight < 130 g) were housed at two or four rats per cage at 22 °C and with artificial daylight. Rats had free access to water and standard food. The regional ethics committee for animal research approved the experimental protocols. All procedures including animals were conducted in accordance with the ethical guidelines set by the European Union Directive 2010/63/EU for animal experiments.
Electrophysiological experiments: The methods used for electrophysiological recording and cell preparation have been described in detail elsewhere. A summary of the procedures is given below. […]
Protocol and analysis: A standard protocol was used for the experiments. Firstly, the current was recorded in the control solution (EC solution) for 30–60 s, followed by a 60–300 s test period with or without AP. The spontaneous miniature inhibitory postsynaptic currents (mIPSCs) were detected by visual inspection of current changes. […] The time-course and amplitude of the currents were measured semi-manually by using cursors and were fitted to an exponential decay curve by the curve-fitting routine of the pCLAMP software (Axon Instruments, Foster City, CA, USA). […] All the mIPSC values from the treatment period of the recorded cell (n = 6–11 events) were pooled and the mean was subjected to statistical analysis. […]

[2] = i.v. AP; cited from earlier work
[3] = molecular target: T1, human α5β3γ2L GABAA receptors expressed in HEK-293 cells (Homo sapiens, UniProt P28472+P31644); assay: Whole-cell patch clamp of GABA/THDOC-evoked currents, extra-synaptic protocol (Dynaflow); type: cell-based
T1 construct: The coding regions of the human GABAA receptor subunits were then amplified by PCR; expressed in transfected cells; host or cells: HEK-293 (permanently transfected, pcDNA3.1 vectors, CMV promoter)
Excerpt: Wild-type HEK-293 cells (passage 4, originating from Pasteur Institute, Paris, France) were permanently transfected with vectors including the human CMV promoter for the constitutive expression of the human α5, β3, and γ2L GABAA receptor subunits (α5β3γ2L) or the human α1, β2, and γ2L GABAA receptor subunits (α1β2γ2L). The production of the plasmids used in the sub-cloning of the different subunits is published in Rahman et al..
The electrophysiological recordings from HEK-293 cells were performed with the whole-cell voltage clamp technique, at room temperature (21–23 °C). After compensation for liquid junction potential, a steady holding potential of −17 mV was used in all experiments. Patch pipettes were pulled from borosilicate glass (Bergman Labora AB, Danderyd, Sweden) and polished to a resistance of 2–5 MΩ when filled with intracellular solution and immersed in a bath (extracellular) solution (for solutions, see below). The pipette tips were filled by immersion in standard intracellular solution and subsequent back-filling with intracellular solution. The recordings were made using an Axopatch 200B amplifier and a Digidata 1322A (Axon Instruments, Foster City, CA, USA) controlled via a Pentium processor-based personal computer. Data were acquired using the pCLAMP software sampled at 10 kHz, filtered at 2–10 kHz, and analyzed with Clampfit (versions 9.0, both from Axon Instruments, Foster City, CA, USA). A series resistance between the pipette and cell membrane not higher than 20 MΩ was accepted. No series resistance compensation was used. The stability of series resistance was monitored repeatedly from the time course of capacitative transients during the experiments. The measured liquid junction potential between extracellular and intracellular solutions was subtracted from all data presented, as previously described. All experiments were performed at room temperature (21–23 °C).
In all electrophysiological experiments, tetrahydro-deoxycorticosterone (THDOC) was used as a positive GABAA receptor steroid modulator (PAM) to mimic the effect of AP on central GABAA channels. […] THDOC (Sigma Chemical Co., St. Louis, MO, USA) and GR3027 (3α-ethynyl, 3β-hydroxyl, 5α-androstan-17-oxime, golexanolone, Umecrine Cognition AB, Stockholm, Sweden) were dissolved in dimethyl sulfoxide (DMSO) using ultrasound, for the preparation of solutions containing a final DMSO concentration of 0.1%. GR3027 was discovered within a series of molecules developed and patented by T. Bäckström and G. Ragagnin, (patent WO 2008/063128). All solutions were complemented with DMSO to achieve the same final concentration as in the steroid-containing test solution. GABA (Sigma Chemical Co., St. Louis, MO, USA) was first prepared as a stock solution (dissolved in EC with ultrasonic treatment) to the desired concentrations, with the corresponding final concentrations of test solutions (30 µM and 0.3 µM; see protocols below). GABA was added to the experimental solution without a change in osmolarity.
The experimental protocols were designed to mimic the physiological conditions of the tonic (extra-synaptic) and phasic (synaptic) activation of GABAA receptors observed in central neurons, depending on the subunit compositions, respectively. GABA-evoked currents in HEK-293 cells expressing extra-synaptic (α5β3γ2L) or synaptic (α1β2γ2L) types of GABAA receptors were studied using the conventional whole-cell patch clamp technique. To mimic the physiological GABA exposure, the HEK-293 cells expressing α1β2γ2L GABAA receptors were exposed to short applications (40 ms) of 30 µM GABA, whereas HEK-293 cells expressing α5β3γ2L GABAA receptors were exposed to prolonged applications (6 s) of 0.3 µM GABA, either in the absence or presence of THDOC and/or GR3027.

T1 sequence (P31644 32-462): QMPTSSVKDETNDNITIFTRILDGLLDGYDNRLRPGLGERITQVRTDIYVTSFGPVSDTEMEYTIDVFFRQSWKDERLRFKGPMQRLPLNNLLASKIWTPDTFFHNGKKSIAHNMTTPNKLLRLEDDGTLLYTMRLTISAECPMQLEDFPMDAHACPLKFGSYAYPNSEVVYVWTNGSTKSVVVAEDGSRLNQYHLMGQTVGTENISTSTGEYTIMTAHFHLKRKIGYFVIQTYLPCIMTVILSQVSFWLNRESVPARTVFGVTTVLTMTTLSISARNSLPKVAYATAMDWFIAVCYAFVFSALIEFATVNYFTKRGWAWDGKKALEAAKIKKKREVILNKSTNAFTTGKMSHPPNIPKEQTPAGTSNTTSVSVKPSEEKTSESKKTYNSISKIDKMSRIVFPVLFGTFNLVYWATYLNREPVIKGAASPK
T1 sequence (P28472 26-473 isoform P28472-2 limits assumed): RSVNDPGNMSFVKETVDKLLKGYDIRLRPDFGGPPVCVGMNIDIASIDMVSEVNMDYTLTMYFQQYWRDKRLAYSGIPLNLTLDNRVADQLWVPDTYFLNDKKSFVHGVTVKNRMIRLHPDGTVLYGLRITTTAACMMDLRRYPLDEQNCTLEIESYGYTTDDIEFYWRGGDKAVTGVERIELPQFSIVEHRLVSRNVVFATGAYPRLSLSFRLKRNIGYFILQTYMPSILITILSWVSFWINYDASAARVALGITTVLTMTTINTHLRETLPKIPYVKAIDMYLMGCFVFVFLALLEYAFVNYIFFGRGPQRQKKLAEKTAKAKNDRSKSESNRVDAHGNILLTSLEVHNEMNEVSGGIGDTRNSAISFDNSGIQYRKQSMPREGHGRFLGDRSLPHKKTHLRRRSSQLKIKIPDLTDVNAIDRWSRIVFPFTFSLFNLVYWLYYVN
T1 sequence (P18507 40-475 partner): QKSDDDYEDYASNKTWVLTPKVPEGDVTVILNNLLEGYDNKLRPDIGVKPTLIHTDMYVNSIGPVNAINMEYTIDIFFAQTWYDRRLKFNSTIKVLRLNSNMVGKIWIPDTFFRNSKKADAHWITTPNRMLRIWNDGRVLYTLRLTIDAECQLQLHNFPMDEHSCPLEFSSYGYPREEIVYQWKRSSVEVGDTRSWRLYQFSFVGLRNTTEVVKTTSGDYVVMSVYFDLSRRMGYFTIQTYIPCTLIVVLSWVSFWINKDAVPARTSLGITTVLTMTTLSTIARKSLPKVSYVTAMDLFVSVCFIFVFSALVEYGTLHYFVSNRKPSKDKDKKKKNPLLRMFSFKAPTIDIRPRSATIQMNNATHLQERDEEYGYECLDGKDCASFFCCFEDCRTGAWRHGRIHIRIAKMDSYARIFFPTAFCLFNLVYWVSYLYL

| Compound | AUC of spontaneous miniature inhibitory postsynaptic currents vs vehicle [1] | Concentration in brain tissue after i.v. injections giving acute memory and learning disturbances [2] | EC50 ([3]; EC50 of THDOC effect (outward shift in baseline holding current, direct activation), THDOC 30-300 nM, 0.3 µM GABA 6 s protocol, holding potential −17 mV) | THDOC Emax, % change in peak amplitude at 0.3 µM GABA ([3]; THDOC 0.01-1 µM + 0.3 µM GABA + 1 µM GR3027) | THDOC Emax, % change in peak amplitude at 0.3 µM GABA ([3]; THDOC 0.01-1 µM + 0.3 µM GABA + 3 µM GR3027) | THDOC Emax, % change in peak amplitude at 0.3 µM GABA ([3]; THDOC 0.01-1 µM + 0.3 µM GABA, no GR3027) | Emax of THDOC effect (outward shift in baseline holding current, direct activation) ([3]; THDOC 30-300 nM, 0.3 µM GABA 6 s protocol) | EC50 ([3]; THDOC EC50, enhancement of GABA-evoked peak amplitude, THDOC 0.01-1 µM + 0.3 µM GABA + 1 µM GR3027) | EC50 ([3]; THDOC EC50, enhancement of GABA-evoked peak amplitude, THDOC 0.01-1 µM + 0.3 µM GABA + 3 µM GR3027) | EC50 ([3]; THDOC EC50, enhancement of GABA-evoked peak amplitude, THDOC 0.01-1 µM + 0.3 µM GABA, no GR3027) |
| --- | --- | --- | --- | --- | --- | --- | --- | --- | --- | --- |
| CC(=O)[C@H]1CC[C@H]2[C@@H]3CC[C@H]4C[C@H](O)CC[C@]4(C)[C@H]3CC[C@]12C [AP, 3α-OH-5α-pregnan-20-one] | significantly higher | 1000 to 2000 nM |  |  |  |  |  |  |  |  |
| C[C@]12CC[C@@H](O)C[C@@H]1CC[C@@H]1[C@@H]2CC[C@]2(C)[C@@H](C(=O)CO)CC[C@@H]12 [THDOC, 3α,21-dihydroxy-5α-pregnan-20-one, reference compound] |  |  | 32 nM | 489% | 482% | 687% | 145% | 220 nM | 350 nM | 190 nM |
